{"source": "patent US11771779B2", "about": "“Non-metallic magnetic resonance contrast agent” (HADASIT MEDICAL RESEARCH SERVICES & DEVELOPMENT LIMITED, priority 2018, dated 2023)", "key": {"[1]": {"settings": "in vivo; cited from earlier work"}, "[2]": {"assay": "T1 of hyperpolarized ^15N sites bound to labile protons upon dissolution in H2O and D2O, 5.8 T", "format": "physicochemical", "settings": "for T1 upon dissolution in D2O / T1 upon dissolution in H2O: ≈37° C. (35-40° C.), 5.8 T, n=2; for T1 prolongation D2O versus H2O: deuteration of labile protons; for decrease in polarization during 1 min transfer and administration: entire process at physiological temperatures", "quoted_text": "Spin polarization and fast dissolution were carried out in a dDNP commercial device (HyperSense, Oxford Instruments Molecular Biotools, Oxford, UK). The sample was maintained at 1.4-1.5 K and was irradiated at 94.110 GHz. ^15N NMR spectroscopy was performed in a 5.8 T NMR spectrometer (RS2D, Mundolsheim, France), using a 10-mm broadband NMR probe. The temperature in the NMR tube was continuously monitored using an NMR compatible temperature probe (Osensa, Burnaby, BC, Canada). Spectral processing and calculation of integrated intensities was performed using MNova (Mestrelab Research, Santiago de Compostela, Spain). Liquid state polarization was determined by comparing the integrated intensity of the first hyperpolarized spectrum to the integrated intensity of a standard containing a known concentration of ^15N label, where the thermal equilibrium polarization is given as PolTE=tanh(ℏγB/2kbT) Determination of the T1 of the hyperpolarized sites was performed by curve fitting of the signal decay to the following equation: S(t)=S0·e^−t/T^1·(cos θ)^t/TR in which TR, the time between excitations, and θ, the nutation angle of excitation, are known. For measurements of T1 in whole blood, 5.5 ml of whole blood in heparinized tube was obtained from a healthy volunteer and maintained at 20° C. for 2.5 h. Ten minutes before dissolution of the hyperpolarized urea sample, the blood was loaded into a NMR tube in the spectrometer and maintained at 36° C. The hyperpolarized urea sample was dissolved into a container outside the magnet and was injected in 0.5-1.0 mL aliquots followed by ≈2 ml of air through a tube at the bottom of the sample, to ensure no sample remained in the inlet line and complete mixing of the freshly injected solution with the blood. The sample was visually inspected at the end of the experiment to confirm that the hyperpolarized solution was well mixed with the blood and that there was no separation of the blood. Curve fitting was performed using Matlab (Mathworks, Natick, Mass., USA). Statistical analysis was performed using Microsoft Excel (Microsoft, Ra'anana, Israel)."}, "[3]": {"assay": "Liquid state polarization and buildup of [^15N2]urea by dDNP", "format": "physicochemical", "procedure": "The temperature in the NMR tube was continuously monitored using an NMR compatible temperature probe (Osensa, Burnaby, BC, Canada). […] Curve fitting was performed using Matlab (Mathworks, Natick, Mass., USA)."}, "[4]": {"assay": "Temperature dependence of T1 of hyperpolarized [^15N2]urea in D2O", "format": "physicochemical", "set-up": "T1 Average ± SD: unit not given here", "procedure": "The experiment shown in FIG. 9B clarified the importance of maximizing the T1 of [^15N2]urea for optimal storage of the polarization, in order to expand the time scale in which the hyperpolarized signal from a single dose can be observed in vivo. As for storage there are no limitation to physiological temperatures, the effect of temperature on the T1 of [^15N2]urea was measured. Given the impressive signal afforded by the dDNP process and its long lifetime, it was possible to measure the T1 of the ^15N sites of urea for a range of temperatures with a single sample that was slowly heated or cooled while the temperature was continuously monitored with an NMR compatible temperature probe (FIG. 10A, top). In order to determine the temperature dependent T1, the decay data were retrospectively binned to consecutive 10° C. segments (FIG. 10A, alternating shading indicates different 10° C. segments) and the T for each temperature segment was determined (FIG. 10B, inset).\nThe hyperpolarized decay acquisitions were carried out with 3-10° excitation angle and 5-20 s repetition time. There was no significant difference in the T determined with different acquisition parameters.\nIndividual measurements are shown. Each column represents a single hyperpolarized decay, obtained with the same flip angle and repetition time. Using an online measurement of the temperature inside the NMR tube, we could differentiate different temperature regimes within a single decay and thus assess the effect of temperature on T1. T1 values were determined by fitting the equation describing the mono-exponential decay of a hyperpolarized signal: S(t)=S0·e−t/T1·(cos θ)t/TR.\nThe angle of excitation was determined by calibration of the 90o excitation on a ^15N labeled standard. The error for each individual measurement represents the 95% confidence interval of the curve fit.\nThe temperature gradient was formed by adding a solution at a temperature different than the spectrometer temperature so that throughout the acquisition the sample slowly cooled/warmed to the spectrometer temperature. […] Variability in the determined T1 values may be due to slight variations in the effective angle of excitation and/or the amount of trace protons present in different samples; indeed when different temperature segments are compared within the same hyperpolarized decay, (i.e. for the same sample on the same day), the dependence of T1 on the temperature can be even more clearly seen. The average and standard deviation of all measurements in the same temperature regime are shown in the column on the right."}, "[5]": {"description": "The dissolution process is detailed in the results section. […] Unless otherwise stated, the dissolved hyperpolarized solution was directly injected to a screw cup 10 mm NMR tube in a 5.8T NMR spectrometer via a PTFE line of about 2.4 m length with 3 s of He(g) chase. This line was wrapped with a heating tape (MRC, Holon, Israel) that enabled control over the temperature of the dissolution medium arriving to the NMR tube directly or to a collection tube in the fringe field of the spectrometer. ^15N-Nuclear Magnetic Resonance (NMR) spectra were continuously recorded immediately at the start of the dissolution process. […] In the experiments in body fluids and in experiments in which the hyperpolarized solution was first cooled to temperatures below room temperature, the dissolution media was first collected in a conical tube placed in the spectrometer's fringe field, and then was injected by syringe via a PEEK line to the NMR tube that was placed in the magnet.\nFor heating this hyperpolarized solution prior to arrival to the NMR tube, the PTFE line leading the hyperpolarized solution out of the spin polarization device was wrapped with a heating tape connected to a temperature controller (MRC, Holon, Israel). In this way, hyperpolarized solutions at temperatures higher than 26° C. could be obtained. For cooling the hyperpolarized solution, the heating tape was not turned on and the dissolution medium was mixed with 0 to 4 mL of D2O at 2° C. in a collection tube placed in ice-water bath in the fringe field of the magnet, prior to injection.\n^15N-NMR spectroscopy was performed in a 5.8T NMR spectrometer (RS2D, Mundolsheim, France), using a 10 mm broad-band NMR probe. The chemical shift scale of the spectra presented herein was calibrated based on a separate measurement of a [^15N2]urea standard sample (4M in H2O:D2O 80:20), carried out prior to hyperpolarized ^15N acquisitions, calibrating the [^15N2]urea signal to −306 ppm (relative to nitromethane). For enhancement factor calculation, the spectra were collected with a high flip angle of […] and a repetition time of 2 s. For T1 calculation, the spectra were acquired with a low flip angle of […] and a longer repetition time of 5-10 s.\nThe temperature in the NMR tube was continuously monitored using an NMR compatible temperature probe (Osensa, Burnaby, BC, Canada).\nDetermination of the T1 of the hyperpolarized sites was performed by curve fitting of the signal decay to the following equation: S(t)=S0·e^−t/T^1·(cos θ)^t/TR, in which TR, the time between excitations, and θ, the nutation angle of excitation, are known. Curve fitting was performed using Matlab (Mathworks, Natick, Mass., USA).", "remark": "listed apart in the source"}}, "note": "Like-named read-outs stand apart in the source and are kept apart here."}
{"smiles": "O=NO", "note": "[Nitrite (NO2), Nitrite]", "values": [{"measurement": "half-life in the circulation", "setting": "[1]", "result": 20, "unit": "min"}]}
{"smiles": "[15NH2]C([15NH2])=O", "note": "[[^15N2]urea]", "values": [{"measurement": "T1 upon dissolution in D2O", "setting": "[2]", "result": "200 ± 20", "unit": "s"}, {"measurement": "T1 upon dissolution in H2O", "setting": "[2]", "result": "33 ± 5", "unit": "s"}, {"measurement": "T1 prolongation D2O versus H2O", "setting": "[2]", "result": 6.1, "unit": "fold"}, {"measurement": "decrease in polarization during 1 min transfer and administration", "setting": "[2]", "result": "≈ 25%"}, {"measurement": "polarization buildup time", "setting": "[3]; R^2=0.93", "result": "2.3 ± 1.2", "unit": "h"}, {"measurement": "maximum polarization", "setting": "[3]; liquid state polarization after varying irradiation times, 1.4-1.5 K", "result": "5.1±1.6", "unit": "%"}, {"measurement": "T1 Average ± SD", "setting": "[4]; 15-25° C., n = 3", "result": "146 ± 23"}, {"measurement": "T1 Average ± SD", "setting": "[4]; 25-35° C., n = 4", "result": "191 ± 33"}, {"measurement": "T1 Average ± SD", "setting": "[4]; 35-45° C., n = 6", "result": "226 ± 38"}, {"measurement": "T1 Average ± SD", "setting": "[4]; 45-55° C., n = 4", "result": "308 ± 34"}, {"measurement": "T1 Average ± SD", "setting": "[4]; 55-65° C., n = 4", "result": "351 ± 40"}, {"measurement": "T1 Average ± SD", "setting": "[4]; 65-75° C., n = 3", "result": "382 ± 48"}, {"measurement": "T1", "setting": "[4]; #1, θ 10°, TR 5 s, 35-45° C.", "result": "228 ± 4"}, {"measurement": "T1", "setting": "[4]; #2, θ 3°, TR 10 s, 15-25° C., ± 95% CI of fit", "result": "155 ± 3"}, {"measurement": "T1", "setting": "[4]; #2, θ 3°, TR 10 s, 25-35° C.", "result": "196 ± 8"}, {"measurement": "T1", "setting": "[4]; #3, θ 10°, TR 10 s, 25-35° C.", "result": "209 ± 2"}, {"measurement": "T1", "setting": "[4]; #3, θ 10°, TR 10 s, 35-45° C.", "result": "266 ± 4"}, {"measurement": "T1", "setting": "[4]; #3, θ 10°, TR 10 s, 45-55° C.", "result": "355 ± 8"}, {"measurement": "T1", "setting": "[4]; #3, θ 10°, TR 10 s, 55-65° C.", "result": "382 ± 17"}, {"measurement": "T1", "setting": "[4]; #4, θ 10°, TR 10 s, 25-35° C.", "result": "216 ± 2"}, {"measurement": "T1", "setting": "[4]; #4, θ 10°, TR 10 s, 35-45° C.", "result": "272 ± 3"}, {"measurement": "T1", "setting": "[4]; #4, θ 10°, TR 10 s, 45-55° C.", "result": "340 ± 5"}, {"measurement": "T1", "setting": "[4]; #4, θ 10°, TR 10 s, 55-65° C.", "result": "386 ± 12"}, {"measurement": "T1", "setting": "[4]; #4, θ 10°, TR 10 s, 65-75° C.", "result": "416 ± 23"}, {"measurement": "T1", "setting": "[4]; #5, θ 10°, TR 10 s, 35-45° C.", "result": "216 ± 5"}, {"measurement": "T1", "setting": "[4]; #5, θ 10°, TR 10 s, 45-55° C.", "result": "273 ± 4"}, {"measurement": "T1", "setting": "[4]; #5, θ 10°, TR 10 s, 55-65° C.", "result": "305 ± 14"}, {"measurement": "T1", "setting": "[4]; #5, θ 10°, TR 10 s, 65-75° C.", "result": "327 ± 16"}, {"measurement": "T1", "setting": "[4]; #6, θ 10°, TR 10 s, 15-25° C.", "result": "112 ± 6"}, {"measurement": "T1", "setting": "[4]; #6, θ 10°, TR 10 s, 25-35° C.", "result": "143 ± 1"}, {"measurement": "T1", "setting": "[4]; #7, θ 10°, TR 15 s, 35-45° C.", "result": "198 ± 2"}, {"measurement": "T1", "setting": "[4]; #8, θ 10°, TR 15 s, 35-45° C.", "result": "176 ± 5"}, {"measurement": "T1", "setting": "[4]; #9, θ 5°, TR 20 s, 45-55° C.", "result": "284 ± 6"}, {"measurement": "T1", "setting": "[4]; #9, θ 5°, TR 20 s, 55-65° C.", "result": "332 ± 11"}, {"measurement": "T1", "setting": "[4]; #9, θ 5°, TR 20 s, 65-75° C.", "result": "404 ± 41"}, {"measurement": "T1", "setting": "[4]; #10, θ 10°, TR 10 s, 15-25° C.", "result": "163 ± 20"}, {"measurement": "T1", "setting": "[4]; D2O, 65-75° C. (above 65° C.)", "result": "more than 6 min"}, {"measurement": "T1", "setting": "[4]; deuterated water, physiological temperatures", "result": "> 3", "unit": "min"}, {"measurement": "T1 in whole blood", "setting": "2nd injection", "result": "12.0 ± 0.2", "unit": "s"}, {"measurement": "T1 in whole blood", "setting": "3rd injection", "result": "12.9 ± 0.6", "unit": "s"}, {"measurement": "T1 in whole blood", "setting": "37° C.", "result": 10, "unit": "s"}, {"measurement": "T1 in whole human blood", "setting": "first decay curve, D2O:whole blood 1:10, 95% CI", "result": "9.8 ± 0.2", "unit": "s"}]}
{"smiles": "O=[15N][O-].[Na+]", "note": "[[^15N]nitrite, sodium [^15N]nitrite]", "values": [{"measurement": "T1", "setting": "[5]; D2O, n=2", "result": "14.8 ± 0.6", "unit": "s"}, {"measurement": "T1", "setting": "[5]; H2O, n=2", "result": "13.6 ± 0.5", "unit": "s"}, {"measurement": "T1", "setting": "[5]; same sample, D2O (co-polarized nitrate and nitrite)", "result": 14, "unit": "s"}]}
{"smiles": "O=C1CCC(=O)[15NH]1", "note": "[[^15N]succinimide]", "values": [{"measurement": "T1 upon dissolution in D2O", "setting": "[2]", "result": "215 ± 2", "unit": "s"}, {"measurement": "T1 upon dissolution in H2O", "setting": "[2]", "result": "45 ± 3", "unit": "s"}, {"measurement": "T1 prolongation D2O versus H2O", "setting": "[2]", "result": 4.8, "unit": "fold"}]}
{"smiles": "Cl.N[C@@H](CCCNC(=[15NH])[15NH2])C(=O)O", "note": "[[guanido-^15N2]arginine, L-[guanido-^15N2]arginine:HCl]", "values": [{"measurement": "T1 upon dissolution in D2O", "setting": "[2]", "result": "44 ± 1", "unit": "s"}, {"measurement": "T1 upon dissolution in H2O", "setting": "[2]", "result": "6.6 ± 0.3", "unit": "s"}, {"measurement": "T1 prolongation D2O versus H2O", "setting": "[2]", "result": 6.7, "unit": "fold"}]}
{"smiles": "N[13C](N)=O", "note": "[carbon-13 labeled urea, reference compound]", "values": [{"measurement": "decrease in polarization during 1 min transfer and administration", "setting": "[2]", "result": "≈ 80%"}]}
{"smiles": "O=[N+]([O-])O", "note": "[nitrate (NO3—), nitrate]", "values": [{"measurement": "half-life in the circulation", "setting": "[1]", "result": "300 to 360", "unit": "min"}]}
